Experimental data reported in US20220259265A1, “Inhibitors and Use Thereof in Cancer Treatment” (The University of Sydney, priority 2019, published 2022).
Ends that are not written are not given here. Peptide text beside a SMILES is read from it. * marks the point of attachment. 5TAMRA = CN(C)c1ccc2c(c1)Oc1cc(N(C)C)ccc1C21OC(=O)c2cc(C(=O)*)ccc21

Legend:
[1] = system: HCC1806 breast cancer cells; test: Nuclear uptake of 5-TAMRA-labelled peptide, confocal microscopy (fixed and live cell imaging); format: cell-based, human
Experimental: The peptide was synthesised with the fluorescent dye 5-TAMRA (5-carboxytetramethyl-rhodamine) covalently bound at its amino-terminus. Since under some circumstances the fixation of cells prior to imaging may introduce artefacts, experiments were performed to detect the localisation of the peptide both with and without fixation of the cells. […] At the indicated time points, cells were washed three times with PBS, fixed with 4% paraformaldehyde for 15 min, washed three times and mounted on slides using ProLong Gold Antifade Reagent containing the nuclear stain DAPI (Life Technologies). Confocal fluorescence images were captured with a Leica TCS SP5 confocal laser scanning microscope (Leica Microsystems, Wetzlar, Germany). Live cell imaging (FIG. 8b): HCC1806 cells were plated in an 8-well chamber slide (Nunc Lab-Tek, Sigma Aldrich); 0.1 mg/mL Hoechst nuclear stain (Life Technologies) was added to the cells for 15 mins and imaged (0 min time point) using Leica TCS SP5 confocal microscope. […] Images were taken at the times indicated.

[2] = system: HCC1806 breast cancer cells; test: 14-day colony formation or clonogenic survival assay; format: cell-based, human; details: veliparib 5 μM
Experimental: HCC1806 cells (500 cells/well) were plated in 6-well plates for 24 h prior to being treated with or without 5 μM of PARPi (veliparib) for a further 24 h. […] Colonies were washed with PBS and stained using 0.5% Crystal Violet (Sigma Aldrich) in 20% methanol for 30 min prior to rinsing with water. Colonies, defined as clusters of at least 30 cells, were imaged and counted with an AID vSpot Spectrum imager (AutoImmun Diagnostika GmbH, Strassberg, Germany).
The 14-day colony formation or clonogenic survival assay measures the ability of cells to survive 2 days of chemotherapy-induced DNA damage, and form colonies of at least 30 cells over the next 12 days. […] The purpose was to find conditions under which the cells become more sensitive to this low dose of chemotherapy.

[3] = system: γH2AX (DNA double-strand breaks) in HCC1806 cells; test: γH2AX immunofluorescence, HCC1806 cells; format: cell-based, human; details: olaparib 10 μM or veliparib 20 μM pre-treatment, etoposide 1 h (T0), 4 h recovery (T4)
Experimental: (§1) The human basal-like triple negative breast cancer (TNBC) cell lines MDA-MB-468 and HCC1806 were obtained from ATCC, Manassas, Va. and maintained in RPMI 1640 medium containing 5% FBS and 10 μg/mL bovine insulin under standard conditions. Cryopreserved stocks were established within 1 month of receipt, and fresh cultures for use in experiments were established from these stocks every 2 to 3 months.
(§2) Cells grown on 8-mm glass coverslips were washed three times with PBS, fixed with 4% paraformaldehyde for 15 min, permeabilized with 0.2% Triton X-100 for 5 min and blocked with 2% BSA for 1 h. Cells were then incubated with rabbit anti-phospho-histone γH2A.X (Ser139) (1:200; Cell Signaling Technology, #9718) overnight at 4° C., washed, and further incubated with anti-rabbit secondary antibody, tagged with Alexa Fluor 594 (Life Technologies, Carlsbad, Calif., USA). For controls, cells were treated with isotype-matched IgG from the same species. Slides were mounted using ProLong Gold Antifade Reagent (Life Technologies). […] Data were calculated from three replicate experiments.

[4] = system: γH2AX (DNA double-strand breaks) in MDA-MB-468 cells; test: γH2AX immunofluorescence, MDA-MB-468 cells; format: cell-based, human; details: olaparib 10 μM or veliparib 20 μM pre-treatment, etoposide 1 h (T0), 4 h recovery (T4)
Experimental: as §1, §2

[5] = system: DNA end-joining activity in MDA-MB-468 cells; test: DNA end-joining assay, nuclear extracts of treated MDA-MB-468 cells; format: cell-based, human
Experimental: (§3) Nuclear extraction and end-joining assay was performed as previously described (Andrin C et al., J Blot Chem., 2004, 279, 25017-25023; Andrin C et al., Nucleus., 2012, 3, 384-395) with slight modifications. […] After isolation of nuclei by centrifugation through a buffer containing 300 mM sucrose, the washed nuclear pellet was extracted into high-salt buffer (20 mM Hepes, pH 7.5, 25% glycerol, 420 mM NaCl, 0.2 mM EDTA, 1.5 mM MgCl2) for 30 min on ice, and insoluble material was removed by centrifugation. The soluble nuclear extract was used in the end-joining assay. Restriction enzymes NheI and EcoRI (New England Biolabs, Ipswich, Mass., USA) were used to digest a EGFP-C1 plasmid (Clontech, Mountain View, Calif., USA) to generate a DNA fragment of 4 kb with non-homologous ends. The linearized plasmid was separated by 0.8% agarose gel electrophoresis, purified using a DNA gel extraction kit (Qiagen), and used as the substrate for end-joining assays. Nuclear extract (2 μg) was mixed with end-joining assay buffer (7.5 mM Tris pH 8.0, 0.2 mM CaCl2, 10 mM MgCl2, 50 mM KCl, 1.2 mM ATP and 0.5 mM DTT) and allowed to stand for 30 min at 22° C. Repair was initiated by adding 100 ng of prepared linearized DNA and incubated at 25° C. for 30 min, stopped by the addition of 0.5 M EDTA, 0.5% SDS and 10 mg/mL Proteinase K. DNA bands were separated on a 0.7% agarose gel, stained with SYBR Gold (Life Technologies), and visualized on a BioRad ChemiDoc imaging system.

[6] = target: T1, IGFBP-3 complexes with NONO (NONO/SFPQ) in MDA-MB-468 cells (Homo sapiens, UniProt Q15233); test: Co-immunoprecipitation with IGFBP-3-Fab beads and western blotting, MDA-MB-468 cells; format: cell-based; details: 24 h preincubation with veliparib 20 μM or olaparib 10 μM prior to 20 μM etoposide
T1 construct: endogenous in cells; host or cells: MDA-MB-468; HCC1806
T1 sequence (Q15233 1-471): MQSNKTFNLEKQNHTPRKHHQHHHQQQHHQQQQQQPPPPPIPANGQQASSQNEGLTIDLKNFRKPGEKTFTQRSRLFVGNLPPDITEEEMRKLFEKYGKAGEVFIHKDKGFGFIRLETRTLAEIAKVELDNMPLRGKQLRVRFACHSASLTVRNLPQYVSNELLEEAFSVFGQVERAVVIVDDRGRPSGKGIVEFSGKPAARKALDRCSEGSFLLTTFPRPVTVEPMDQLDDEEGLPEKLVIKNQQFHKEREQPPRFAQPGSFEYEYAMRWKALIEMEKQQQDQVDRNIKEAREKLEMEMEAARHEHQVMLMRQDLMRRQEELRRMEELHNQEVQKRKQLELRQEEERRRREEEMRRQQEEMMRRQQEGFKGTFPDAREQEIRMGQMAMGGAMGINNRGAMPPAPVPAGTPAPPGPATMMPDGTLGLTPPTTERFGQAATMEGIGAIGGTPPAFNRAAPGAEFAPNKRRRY
T1 sequence (P23246 1-707 partner): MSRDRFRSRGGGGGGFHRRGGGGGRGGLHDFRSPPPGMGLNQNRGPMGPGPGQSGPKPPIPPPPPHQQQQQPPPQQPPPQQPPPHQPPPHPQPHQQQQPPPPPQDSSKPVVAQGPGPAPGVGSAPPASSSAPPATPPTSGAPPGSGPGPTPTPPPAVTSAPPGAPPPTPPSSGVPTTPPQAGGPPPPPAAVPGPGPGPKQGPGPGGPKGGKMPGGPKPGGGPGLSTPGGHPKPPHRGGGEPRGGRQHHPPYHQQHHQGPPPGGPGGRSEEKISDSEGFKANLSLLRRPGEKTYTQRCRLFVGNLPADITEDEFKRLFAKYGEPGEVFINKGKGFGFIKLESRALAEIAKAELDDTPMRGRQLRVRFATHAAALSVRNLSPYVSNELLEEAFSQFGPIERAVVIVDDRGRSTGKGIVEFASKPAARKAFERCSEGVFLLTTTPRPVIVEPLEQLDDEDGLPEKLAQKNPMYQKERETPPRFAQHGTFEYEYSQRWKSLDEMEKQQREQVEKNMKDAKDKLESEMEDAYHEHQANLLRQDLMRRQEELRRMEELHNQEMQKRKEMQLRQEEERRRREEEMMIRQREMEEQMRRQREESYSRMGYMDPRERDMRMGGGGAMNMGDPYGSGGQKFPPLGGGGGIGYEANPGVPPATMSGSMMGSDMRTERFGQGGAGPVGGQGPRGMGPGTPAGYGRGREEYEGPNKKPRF
Experimental: as §1

[7] = system: IGFBP-3-NONO complexes in HCC1806 cells; test: Proximity ligation assay (PLA), HCC1806 cells; format: cell-based, human
Experimental: (§4) PLA was performed using the Duolink Detection Kit (Olink Bioscience Uppsala, Sweden) as previously described (Lin M Z et al., Oncogene, 2014, 33, 85-96). Briefly, cells were grown on 8-mm glass coverslips to 50% confluency, treated, and prepared for microscopy by fixing, permeabilizing and blocking. Coverslips were incubated with primary antibody pairs (raised in different species) targeting the proteins under investigation overnight at 4° C. […]; NONO (as above) and […]; IGFBP-3 (as above), 1:100. This was followed by incubation with PLA probes MINUS and PLUS for 1 h at 37° C., probe ligation for 30 min at 37° C. and amplification over 100 min at 37° C. Interactions were detected as amplified far-red signals using a Leica TCS SP5 confocal microscope (Leica Microsystems, Wetzlar, Germany) and quantitated using Image J software.

[8] = system: DNA end-joining activity in HCC1806 cells; test: DNA end-joining assay, nuclear extracts of treated HCC1806 cells; format: cell-based, human
Experimental: as §3, with “Repair was initiated by adding 100 ng of prepared linearized DNA and incubated at 25° C. for 30 min, stopped by the addition of 0.5 M EDTA, 0.5% SDS and 10 mg/mL Proteinase K. DNA bands were separated on a 0.7% agarose gel, stained with SYBR Gold (Life Technologies), and visualized on a BioRad ChemiDoc imaging system.” left out

[9] = system: IGFBP-3-NONO complexes in MDA-MB-468 cells; test: Proximity ligation assay (PLA), MDA-MB-468 cells; format: cell-based, human
Experimental: as §4

[10] = system: γH2AX signal in MDA-MB-468 cells; test: γH2AX response to etoposide after peptide incubation (blot), MDA-MB-468 cells; format: cell-based, human; details: 16 h incubation with peptide at 10 μM, 25 μM etoposide
Experimental: (§5) An elevated γH2AX signal is indicative of sustained DNA damage (i.e. inhibition of DNA repair) compared to the control cells. Peptide #66 was also evaluated in the presence of PARP inhibitors, veliparib (ABT-888) and olaparib (Lynparza). In FIG. 5e and FIG. 5f, the γH2AX signal in the absence of peptide #66 is expressed as 100%, and bars represent the ratio of γH2AX signal in the presence of the peptide, to that in its absence.

[11] = system: γH2AX signal in HCC1806 cells; test: γH2AX response to etoposide after peptide incubation (blot), HCC1806 cells; format: cell-based, human; details: 16 h incubation with peptide at 10 μM, 25 μM etoposide
Experimental: as §5

[12] = 24 h preincubation with 20 μM veliparib, 2 h after 20 μM etoposide
[13] = 20 μM veliparib or 10 μM olaparib 24 h, then 20 μM etoposide 2 h

CC(C)C[C@H](NC(=O)[C@H](Cc1c[nH]cn1)NC(=O)c1ccc2c(c1)C(=O)OC21c2ccc(N(C)C)cc2Oc2cc(N(C)C)ccc21)C(=O)N[C@@H](CCCCN)C(=O)N[C@@H](Cc1ccccc1)C(=O)N[C@@H](CC(C)C)C(=O)N[C@@H](CC(N)=O)C(=O)N[C@H](C(=O)N[C@@H](CC(C)C)C(=O)N[C@@H](CO)C(=O)N1CCC[C@H]1C(=O)N[C@@H](CCCNC(=N)N)C(=O)NCC(=O)O)C(C)C [peptide #66 labelled with 5-TAMRA] (5TAMRA-HLKFLNVLSPRG-OH)
Time of peak colocalization of labelled peptide and nuclei ([1]; fixed cell imaging, or 10 μM labelled peptide): 30 min
Association of labelled peptide with cell nuclei ([1]; live cell imaging, 2.5 μM or 10 μM labelled peptide): associated with cell nuclei at 40 and 60 min, and even more so after 90 min

C[C@]1(c2nc3c(C(N)=O)cccc3[nH]2)CCCN1 [veliparib]
Inhibition of cell survival (colony formation) ([2]; cells exposed to 100 nM etoposide): about one-third
Inhibition of cell survival (colony formation) ([2]; in the absence of etoposide): about one-third
Effect on loss of γH2AX signal over 4 h recovery (DSB repair) [3]: significantly prevented the loss of γH2AX signal
Effect on loss of γH2AX signal over 4 h recovery (DSB repair) [4]: significantly prevented the loss of γH2AX signal
inhibition at 20 µM ([5]; Homo sapiens, MDA-MB-468): ~50%
Effect on IGFBP-3 complexes with NONO (immunoblotting after coIP) [6]: abolished
Effect on increase in IGFBP-3-NONO complexes (PLA) [7, 12]: abolished
inhibition at 20 µM ([8]; Homo sapiens, HCC1806): ~50%
Effect on increase in IGFBP-3-NONO complexes (PLA) [9, 12]: abolished

HLKFLNVLSPRG [Peptide #66]
Nuclear uptake of peptide ([1]; 5-TAMRA-labelled peptide, fixed and live cell imaging): rapid nuclear uptake

COc1cc([C@@H]2c3cc4c(cc3[C@@H](O[C@@H]3O[C@@H]5CO[C@@H](C)O[C@H]5[C@H](O)[C@H]3O)[C@H]3COC(=O)[C@H]23)OCO4)cc(OC)c1O [etoposide]
Activity in direct DNA end-joining assay ([5]; 20 μM etoposide 2 h, nuclear extracts (FIG. 4e)): increased activity
Time of peak interaction between IGFBP-3 and NONO (PLA) ([7]; 20 μM etoposide, 0 to 4 h): ~2 h
Time of peak interaction between IGFBP-3 and NONO (PLA) ([9]; 20 μM etoposide, 0 to 4 h): ~2 h

MEDTLNHLKFLN [compound 64]
γH2AX signal (sustained DNA damage) compared to no peptide [10]: low γH2AX signal
γH2AX signal (sustained DNA damage) compared to no peptide [11]: low γH2AX signal

TLNHLKFLNVLS [compound 65]
γH2AX signal (sustained DNA damage) compared to no peptide [10]: sustained γH2AX signal
γH2AX signal (sustained DNA damage) compared to no peptide [11]: sustained γH2AX signal

O=C(c1cc(Cc2n[nH]c(=O)c3ccccc23)ccc1F)N1CCN(C(=O)C2CC2)CC1 [olaparib]
Effect on loss of γH2AX signal over 4 h recovery (DSB repair) [3]: significantly prevented the loss of γH2AX signal
Effect on loss of γH2AX signal over 4 h recovery (DSB repair) [4]: significantly prevented the loss of γH2AX signal
Inhibition of end joining activity [5, 13]: approximately 50%
Inhibition of end joining activity [8, 13]: approximately 50%
